Measurements from the RepoRT retention time repository (doi:10.1007/s11306-011-0298-z).
Counter-ions that a name gives are not always drawn.

experiment: RP, Waters ACQUITY UPLC HSS T3, 100 × 2.1 mm, 1.8 µm, 30 °C, 0.3 mL/min, estimated dead time 0.73 min; A: water + 0.1% formic acid, pH 3; B: methanol + 0.1% formic acid, pH 3; gradient (min/%B) 0/0 6/0 56/100 60/100; conditions: stereoisomer not certain

| Compound | LC retention time [min] |
| --- | --- |
| COC1C(O)C(O)C(O)C(O)C1O (centres undefined) [pinitol] | 1.41 |
| O=C(O)C1CNCCN1 (centres undefined) [piperazine carboxylic acid] | 1.19 |
| C1CCNCC1 [piperidine hydrochloride] | 2.5 |
| O=C(C=CC=Cc1ccc2c(c1)OCO2)N1CCCCC1 [piperine] | 40.7 |
| O=C(O)c1ccc2c(c1)OCO2 [piperonylic acid] | 26.7 |
| Oc1cc(O)c2c(c1)OC(c1ccc(O)c(O)c1)C(O)C2c1c(O)cc(O)c2c1OC(c1ccc(O)c(O)c1)C(O)C2 (centres undefined) [procyanidin B1] | 18.1 |
| Oc1cc(O)c2c(c1)OC1(c3ccc(O)c(O)c3)Oc3cc(O)c4c(c3C2C1O)OC(c1ccc(O)c(O)c1)C(O)C4 (centres undefined) [procyanidin-A2] | 25.2 |
| CCCN [propylamine] | 1.5 |
| O=C(O)c1ccc(O)c(O)c1 [protocatechuic acid] | 13.9 |
| COc1cc(C=Cc2ccc(O)cc2)cc(OC)c1 [pterostilbene] | 41.4 |
| Cc1ncc(COP(=O)(O)O)c(C=O)c1O [pyridoxal 5-phosphate] | 3.99 |
| Cc1ncc(CO)c(C=O)c1O [pyridoxal] | 3.77 |
| Cc1ncc(COP(=O)(O)O)c(CN)c1O [pyridoxamine 5-phosphate] | 1.41 |
| Cc1ncc(CO)c(CN)c1O [pyridoxamine] | 1.42 |
| Cc1ncc(CO)c(CO)c1O [pyridoxine] | 4.9 |
| Oc1ccccc1O [pyrocatechol] | 13 |
| C1CCNC1 [pyrrolidine] | 1.5 |
| CC(=O)C(=O)O [pyruvic acid] | 1.79 |
| O=c1c(OC2OC(CO)C(O)C(O)C2O)c(-c2ccc(OC3OC(CO)C(O)C(O)C3O)c(O)c2)oc2cc(O)cc(O)c12 (centres undefined) [quercetin 3,4'-diglucoside] | 26.1 |
| O=c1c(OC2OC(C(O)CO)C(O)C2O)c(-c2ccc(O)c(O)c2)oc2cc(O)cc(O)c12 (centres undefined) [quercetin 3-glucoside] | 29.1 |
| O=C(O)C1OC(Oc2c(-c3ccc(O)c(O)c3)oc3cc(O)cc(O)c3c2=O)C(O)C(O)C1O (centres undefined) [quercetin 3-glucuronide] | 28.4 |
| CC1OC(OCC2OC(Oc3c(-c4ccc(O)c(O)c4)oc4cc(O)cc(O)c4c3=O)C(O)C(O)C2O)C(O)C(O)C1O (centres undefined) [quercetin 3-rutinoside] | 29.1 |
| O=c1c(OS(=O)(=O)O)c(-c2ccc(O)c(O)c2)oc2cc(O)cc(O)c12 [quercetin 3-sulfate] | 27.4 |
| O=c1c(O)c(-c2ccc(OC3OC(CO)C(O)C(O)C3O)c(O)c2)oc2cc(O)cc(O)c12 (centres undefined) [quercetin 4'-glucoside] | 30.4 |
| CC(=O)OCC1OC(Oc2c(-c3ccc(O)c(O)c3)oc3cc(O)cc(O)c3c2=O)C(O)C(O)C1O (centres undefined) [quercetin-3-O-glucose-6''-acetate] | 31 |
| O=c1c(OC2OC(CO)C(O)C(O)C2O)c(-c2ccc(O)c(O)c2)oc2cc(O)cc(O)c12 (centres undefined) [quercetin-3-galactoside] | 28.9 |
| O=c1c(O)c(-c2ccc(O)c(O)c2)oc2cc(O)cc(O)c12 [quercetin] | 34 |
| CC1OC(Oc2c(-c3ccc(O)c(O)c3)oc3cc(O)cc(O)c3c2=O)C(O)C(O)C1O (centres undefined) [quercitrin] | 31.1 |

| Compound | LC retention time [min] |
| --- | --- |
| O=C(O)C1(O)CC(O)C(O)C(O)C1 (centres undefined) [quinic acid] | 1.6 |
| OCC1OC(OCC2OC(OC3(CO)OC(CO)C(O)C3O)C(O)C(O)C2O)C(O)C(O)C1O (centres undefined) [raffinose] | 2.6 |
| COc1cc(O)c2c(=O)c(O)c(-c3ccc(O)c(OC)c3)oc2c1 [rhamnazin] | 42.2 |
| COc1cc(O)c2c(=O)c(O)c(-c3ccc(O)c(O)c3)oc2c1 [rhamnetin] | 38.9 |
| CC1OC(O)C(O)C(O)C1O (centres undefined) [rhamnose] | 1.57 |
| Cc1cc2nc3c(=O)[nH]c(=O)nc-3n(CC(O)C(O)C(O)CO)c2cc1C (centres undefined) [riboflavin] | 23.9 |
| CC1OC(OCC2OC(Oc3c(-c4ccc(O)cc4)oc4cc(OC5OC(C)C(O)C(O)C5O)cc(O)c4c3=O)C(O)C(O)C2O)C(O)C(O)C1O (centres undefined) [robinin] | 28.6 |
| O=C(C=Cc1ccc(O)c(O)c1)OC(Cc1ccc(O)c(O)c1)C(=O)O (centres undefined) [rosmarinic acid] | 30 |
| COc1cc(O)c2c(c1)OC(c1ccc(O)cc1)CC2=O (centres undefined) [sakuranetin] | 39 |
| O=C(O)c1ccccc1O [salicylic acid] | 26.4 |
| C=CC(C)(O)CCC1C(C)(O)CCC2C(C)(C)CCCC21C (centres undefined) [sclareol] | 50.1 |
| COc1cc2ccc(=O)oc2cc1O [scopoletin] | 24.6 |
| NCCc1c[nH]c2ccc(O)cc12 [serotonin] | 11.1 |
| COc1cc(/C=C/C(=O)O)cc(OC)c1O [sinapic acid] | 25.9 |
| COc1cc(/C=C/CO)cc(OC)c1O [sinapyl alcohol] | 23.6 |
| COc1ccc(-c2cc(=O)c3c(OC)c(OC)c(OC)cc3o2)cc1OC [sinensetin] | 39.3 |
| CC=CC=CC(=O)O [sorbic acid] | 25.1 |
| NCCCCNCCCN [spermidine] | 1.04 |
| NCCCNCCCCNCCCN [spermine] | 0.98 |
| OCC1OC(OCC2OC(OCC3OC(OC4(CO)OC(CO)C(O)C4O)C(O)C(O)C3O)C(O)C(O)C2O)C(O)C(O)C1O (centres undefined) [stachyose] | 2.4 |
| O=C(O)CCC(=O)O [succinic acid] | 4.97 |
| OCC1OC(OC2(CO)OC(CO)C(O)C2O)C(O)C(O)C1O (centres undefined) [sucrose] | 1.9 |
| COc1cc(C=NN=Cc2cc(OC)c(O)c(OC)c2)cc(OC)c1O [syringaldazine] | 35.5 |
| COc1cc(C=O)cc(OC)c1O [syringaldehyde] | 23.5 |
| COc1cc(-c2oc3cc(O)cc(O)c3c(=O)c2OC2OC(CO)C(O)C(O)C2O)cc(OC)c1O (centres undefined) [syringetin-3-galactoside] | 31.6 |
| COc1cc(-c2oc3cc(O)cc(O)c3c(=O)c2O)cc(OC)c1O [syringetin] | 37.4 |
| NCCc1ccc(O)cc1 [tyramine] | 6.2 |

Other lines, results leading:

| LC retention time [min] | Compound |
| --- | --- |
| 21.9 | COc1cc(C(=O)O)cc(OC)c1O [syringic acid] |
| 42.3 | CC(CCC(=O)NCCS(=O)(=O)O)C1CCC2C3C(O)CC4CC(O)CCC4(C)C3CC(O)C12C (centres undefined) [taurocholic acid] |
| 25.3 | O=C1c2c(O)cc(O)cc2OC(c2ccc(O)c(O)c2)C1O (centres undefined) [taxifolin] |
| 30.5 | CC(C)(C)c1cc(O)ccc1O [tert-butylhydroquinone] |
| 15.3 | Cn1cnc2c1c(=O)[nH]c(=O)n2C [theobromine] |
| 17.8 | Cn1c(=O)c2[nH]cnc2n(C)c1=O [theophylline] |
| 1.6 | Cc1ncc(C[n+]2csc(CCO)c2C)c(N)n1 [thiamine] |
| 1.45 | O=C(O)C(O)C(O)CO (centres undefined) [threonic acid] |
| 1.47 | O=CC(O)C(O)CO (centres undefined) [threose] |
| 18 | O=C(C=Cc1ccc(O)cc1)OC(C(=O)O)C(O)C(=O)O (stereo not drawn) [trans coutaric acid] |
| 27.9 | CC1(O)CCC(C(C)(C)O)CC1 (stereo not drawn) [trans-terpin] |
| 1.67 | C[n+]1cccc(C(=O)[O-])c1 [trigonelline] |
| 26.2 | OCCc1c[nH]c2ccccc12 [trypthophol] |
| 17.5 | OCCc1ccc(O)cc1 [tyrosol] |
| 23.9 | O=c1ccc2ccc(O)cc2o1 [umbelliferone] |
| 2.98 | O=c1cc[nH]c(=O)[nH]1 [uracil] |
| 1.3 | NC(N)=O [urea] |
| 7.1 | CCOC(N)=O [urethane] |
| 1.62 | O=c1[nH]c(=O)c2[nH]c(=O)[nH]c2[nH]1 [uric acid] |
| 7 | O=c1ccn(C2OC(CO)C(O)C2O)c(=O)[nH]1 (centres undefined) [uridine] |
| 53.6 | CC1CCC2(C(=O)O)CCC3(C)C(=CCC4C5(C)CCC(O)C(C)(C)C5CCC43C)C2C1C (centres undefined) [ursolic acid] |
| 20.3 | COc1cc(C(=O)O)ccc1O [vanillic acid] |
| 21.5 | COc1cc(C=O)ccc1O [vanillin] |
| 29 | Oc1ccc(C2Oc3cc(O)c4c(c3C2c2cc(O)cc(O)c2)C2c3c(O)cc5c(c3C(C4c3ccc(O)cc3)C2c2ccc(O)cc2)C(c2cc(O)cc(O)c2)C(c2ccc(O)cc2)O5)cc1 (stereo not drawn) [vaticanol C like isomer] |
| 57.7 | CC(=CCC1=C(C)C(=O)c2ccccc2C1=O)CCCC(C)CCCC(C)CCCC(C)C (centres undefined) [vitamin K1] |
| 28.3 | COc1cc(-c2oc3cc(=O)cc4oc(C(=O)O)cc(c2OC2OC(CO)C(O)C(O)C2O)c43)cc(OC)c1O (centres undefined) [vitisin A] |
| 27 | COc1cc(-c2oc3cc(=O)cc4occc(c2OC2OC(CO)C(O)C(O)C2O)c43)cc(OC)c1O (centres undefined) [vitisin B] |
| 6.01 | O=c1[nH]c(=O)c2[nH]cnc2[nH]1 [xanthine] |
| 1.4 | OC1COC(O)C(O)C1O (centres undefined) [xylose] |
